Measured values from patent US6777412B2 (priority 1990, dated 2004).
Like-named read-outs stand apart in the source and are kept apart here. Marks after values point to notes of the source that are not given here.

How the values were obtained:
Format in all cases: in vivo
Pyricularia oryzae = system: Pyricularia oryzae
Erysiphe graminis hordei = assay: Foliar fungal disease test on plants: Erysiphe graminis hordei (Egh)
Cercospora arachidicola = assay: Foliar fungal disease test on plants: Cercospora arachidicola (Ca); conditions: 100 ppm active ingredient foliar spray plus root drench (approx. 40 ppm a.i. in dry soil), one or two days before inoculation
Procedure: (§1) The compounds were tested against a variety of foliar fungal diseases of plants. The technique employed was as follows.
(§2) The plants were grown in John Innes Potting Compost (No.1 or 2) in 4 cm diameter minipots. The test compounds were formulated either by bead milling with aqueous Dispersol T or as a solution in acetone or acetone/ethanol which was diluted to the required concentration immediately before use. For the foliage diseases, the formulations (100 ppm active ingredient except where otherwise indicated) were sprayed onto the foliage and applied to the roots of the plants in the soil. The sprays were applied to maximum retention and the root drenches to a final concentration equivalent to approximately 40 ppm a.i. in dry soil. Tween 20, to give a final concentration of 0.05%, was added when the sprays were applied to cereals.
(§3) For most of the tests the compound was applied to the soil (roots) and to the foliage (by spraying) one or two days before the plant was inoculated with the disease. An exception was the test on Erysiphe graminis in which the plants were inoculated 24 hours before treatment. Foliar pathogens were applied by spray as spore suspensions onto the leaves of test plants. After inoculation, the plants were put into an appropriate environment to allow infection to proceed and then incubated until the disease was ready for assessment. The period between inoculation and assessment varied from four to fourteen days according to the disease and environment.
(§4) The disease control vas recorded by the following grading:
(§5) 3=trace-5% of disease on untreated plants
(§6) 2=6-25% of disease on untreated plants
(§7) 1=26-59% of disease on untreated plants
(§8) 0=60-100% of disease on untreated plants
Ca Cercospora arachidicola

Puccinia recondita = assay: Foliar fungal disease test on plants: Puccinia recondita (Pr)
How it was run: (§9)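 Potted plants treated by foliar spray to maximum retention (100 ppm a.i. unless stated) plus root drench (~40 ppm a.i. in dry soil), with 0.05% Tween 20 on cereals, one or two days before spore-suspension inoculation.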

Venturia inaequalis = assay: Foliar fungal disease test on plants: Venturia inaequalis (Vi)
How it was run: as §9

Plasmopara viticola = assay: Foliar fungal disease test on plants: Plasmopara viticola (Pv)
How it was run: as §9

[1] = system: Phytophthora infestans lycopersici
Thanatephorus cucumeris = assay: Foliar fungal disease test on plants: Thanatephorus cucumeris (Tc)
Procedure: as §1, §2, §3, §4, §5, §6, §7, §8
Tc Thanatephorus cucumeris

[2] = system: Erysiphe graminis tritici; assay: Foliar fungal disease test on plants: Erysiphe graminis tritici (Egt)
How it was run: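 Formulations (100 ppm a.i. unless stated, 0.05% Tween 20 on cereals) sprayed to foliage plus root drench (~40 ppm a.i. in dry soil), 24 h after spore-suspension spray inoculation.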

Septoria nodorum = assay: Foliar fungal disease test on plants: Septoria nodorum (Sn)
How it was run: as §9

[3] = 100 ppm active ingredient foliar spray plus root drench (approx. 40 ppm a.i. in dry soil), one or two days before inoculation
[4] = 100 ppm active ingredient foliar spray plus root drench (approx. 40 ppm a.i. in dry soil), plants inoculated 24 hours before treatment

## CO/C=C(/C(=O)OC)c1ccccc1Oc1cc(OCc2ccccc2)ncn1 [23 of Table I]
Pyricularia oryzae; [3]
  disease control grading, Po (Pyricularia oryzae): 4 (4=no disease)
Erysiphe graminis hordei; [4]
  disease control grading, Egh (Erysiphe graminis hordei): 4 (4=no disease)
Cercospora arachidicola
  disease control grading, Ca (Cercospora arachidicola): 4 (4=no disease)
Puccinia recondita; [3]
  disease control grading, Pr (Puccinia recondita): 4 (4=no disease)
Venturia inaequalis; [3]
  disease control grading, Vi (Venturia inaegualis): 4 (4=no disease)
Plasmopara viticola; [3]
  disease control grading, Pv (Plasmopara viticola): 4 (4=no disease)

## CO/C=C(/C(=O)OC)c1ccccc1Oc1cc(-c2ccccc2)ncn1 [180 of Table I]
Erysiphe graminis hordei; [4]
  disease control grading, Egh (Erysiphe graminis hordei): 4 (4=no disease)
Cercospora arachidicola
  disease control grading, Ca (Cercospora arachidicola): 4 (4=no disease)
Puccinia recondita; [3]
  disease control grading, Pr (Puccinia recondita): 4 (4=no disease)
Venturia inaequalis; [3]
  disease control grading, Vi (Venturia inaegualis): 4 (4=no disease)
Plasmopara viticola; [3]
  disease control grading, Pv (Plasmopara viticola): 4 (4=no disease)

## CO/C=C(/C(=O)OC)c1ccccc1Oc1cc(OCc2ccco2)ncn1 [320 of Table I]
Pyricularia oryzae; [3]
  disease control grading, Po (Pyricularia oryzae): 3 (3=trace-5% of disease on untreated plants)
[1]; [3]
  disease control grading, Pil (Phytophthora infestans lycopersici): 4 (4=no disease)
Thanatephorus cucumeris; [3]
  disease control grading, Tc (Thanatephorus cucumeris): 4 (4=no disease)
Puccinia recondita; [3]
  disease control grading, Pr (Puccinia recondita): 4 (4=no disease)
Venturia inaequalis; [3]
  disease control grading, Vi (Venturia inaegualis): 4 (4=no disease)
Plasmopara viticola; [3]
  disease control grading, Pv (Plasmopara viticola): 4 (4=no disease)
[2]; [4]
  disease control grading, Egt (Erysiphe graminis tritici): 4 (4=no disease)
Septoria nodorum; [3]
  disease control grading, Sn (Septoria nodorum): 4 (4=no disease)

## CO/C=C(/C(=O)OC)c1ccccc1Oc1cc(OCCOc2ccc(C#N)cc2)ncn1 [390 of Table I]
Pyricularia oryzae; [3]
  disease control grading, Po (Pyricularia oryzae): 4 (4=no disease)
Erysiphe graminis hordei; [4]
  disease control grading, Egh (Erysiphe graminis hordei): 3 (3=trace-5% of disease on untreated plants)
[1]; [3]
  disease control grading, Pil (Phytophthora infestans lycopersici): 0 (0=60-100% of disease on untreated plants)
Thanatephorus cucumeris; [3]
  disease control grading, Tc (Thanatephorus cucumeris): 1 (1=26-59% of disease on untreated plants)
Puccinia recondita; [3]
  disease control grading, Pr (Puccinia recondita): 4 (4=no disease)
Venturia inaequalis; [3]
  disease control grading, Vi (Venturia inaegualis): 4 (4=no disease)
Plasmopara viticola; [3]
  disease control grading, Pv (Plasmopara viticola): 4 (4=no disease)
Septoria nodorum; [3]
  disease control grading, Sn (Septoria nodorum): 3 (3=trace-5% of disease on untreated plants)

## CO/C=C(/C(=O)OC)c1ccccc1Oc1cc(OCCSc2ccccc2)ncn1 [391 of Table I]
Pyricularia oryzae; [3]
  disease control grading, Po (Pyricularia oryzae): 3 (3=trace-5% of disease on untreated plants)
Erysiphe graminis hordei; [4]
  disease control grading, Egh (Erysiphe graminis hordei): 4 (4=no disease)
[1]; [3]
  disease control grading, Pil (Phytophthora infestans lycopersici): 4 (4=no disease)
Thanatephorus cucumeris; [3]
  disease control grading, Tc (Thanatephorus cucumeris): 4 (4=no disease)
Puccinia recondita; [3]
  disease control grading, Pr (Puccinia recondita): 4 (4=no disease)
Venturia inaequalis; [3]
  disease control grading, Vi (Venturia inaegualis): 4 (4=no disease)
Plasmopara viticola; [3]
  disease control grading, Pv (Plasmopara viticola): 4 (4=no disease)
Septoria nodorum; [3]
  disease control grading, Sn (Septoria nodorum): 4 (4=no disease)

## CO/C=C(/C(=O)OC)c1ccccc1Oc1cc(N(C=O)c2ccccc2O)ncn1 [392 of Table I]
Pyricularia oryzae; 10 ppm foliar application only
  disease control grading, Po (Pyricularia oryzae): 0^a (0=60-100% of disease on untreated plants)
Erysiphe graminis hordei; 10 ppm foliar application only
  disease control grading, Egh (Erysiphe graminis hordei): 0^a (0=60-100% of disease on untreated plants)
[1]; 10 ppm foliar application only
  disease control grading, Pil (Phytophthora infestans lycopersici): 0^a (0=60-100% of disease on untreated plants)
Thanatephorus cucumeris; 10 ppm foliar application only
  disease control grading, Tc (Thanatephorus cucumeris): 0^a (0=60-100% of disease on untreated plants)
Puccinia recondita; 10 ppm foliar application only
  disease control grading, Pr (Puccinia recondita): 0^a (0=60-100% of disease on untreated plants)
Venturia inaequalis; 10 ppm foliar application only
  disease control grading, Vi (Venturia inaegualis): 0^a (0=60-100% of disease on untreated plants)
Plasmopara viticola; 10 ppm foliar application only
  disease control grading, Pv (Plasmopara viticola): 0^a (0=60-100% of disease on untreated plants)
Septoria nodorum; 10 ppm foliar application only
  disease control grading, Sn (Septoria nodorum): 1^a (1=26-59% of disease on untreated plants)

## CO/C=C(/C(=O)OC)c1ccccc1Oc1cc(OCCSc2ccccc2C#N)ncn1 [393 of Table I]
Pyricularia oryzae; [3]
  disease control grading, Po (Pyricularia oryzae): 4 (4=no disease)
Erysiphe graminis hordei; [4]
  disease control grading, Egh (Erysiphe graminis hordei): 4 (4=no disease)
[1]; [3]
  disease control grading, Pil (Phytophthora infestans lycopersici): 4 (4=no disease)
Thanatephorus cucumeris; [3]
  disease control grading, Tc (Thanatephorus cucumeris): 4 (4=no disease)
Puccinia recondita; [3]
  disease control grading, Pr (Puccinia recondita): 4 (4=no disease)
Venturia inaequalis; [3]
  disease control grading, Vi (Venturia inaegualis): 0 (0=60-100% of disease on untreated plants)
Plasmopara viticola; [3]
  disease control grading, Pv (Plasmopara viticola): 4 (4=no disease)
Septoria nodorum; [3]
  disease control grading, Sn (Septoria nodorum): 4 (4=no disease)

## CO/C=C(/C(=O)OC)c1ccccc1Oc1cc(OCc2cccs2)ncn1 [394 of Table I]
Pyricularia oryzae; [3]
  disease control grading, Po (Pyricularia oryzae): 3 (3=trace-5% of disease on untreated plants)
[1]; [3]
  disease control grading, Pil (Phytophthora infestans lycopersici): 4 (4=no disease)
Thanatephorus cucumeris; [3]
  disease control grading, Tc (Thanatephorus cucumeris): 4 (4=no disease)
Puccinia recondita; [3]
  disease control grading, Pr (Puccinia recondita): 4 (4=no disease)
Venturia inaequalis; [3]
  disease control grading, Vi (Venturia inaegualis): 4 (4=no disease)
Plasmopara viticola; [3]
  disease control grading, Pv (Plasmopara viticola): 4 (4=no disease)
[2]; [4]
  disease control grading, Egt (Erysiphe graminis tritici): 4 (4=no disease)
Septoria nodorum; [3]
  disease control grading, Sn (Septoria nodorum): 4 (4=no disease)

## CO/C=C(/C(=O)OC)c1ccccc1Oc1cc(O/N=C(/N)c2cccc(C(F)(F)F)c2)ncn1 [406 of Table I]
Pyricularia oryzae; [3]
  disease control grading, Po (Pyricularia oryzae): 0 (0=60-100% of disease on untreated plants)
[1]; [3]
  disease control grading, Pil (Phytophthora infestans lycopersici): 0 (0=60-100% of disease on untreated plants)
Thanatephorus cucumeris; [3]
  disease control grading, Tc (Thanatephorus cucumeris): 0 (0=60-100% of disease on untreated plants)
Puccinia recondita; [3]
  disease control grading, Pr (Puccinia recondita): 0 (0=60-100% of disease on untreated plants)
Venturia inaequalis; [3]
  disease control grading, Vi (Venturia inaegualis): 1 (1=26-59% of disease on untreated plants)
Plasmopara viticola; [3]
  disease control grading, Pv (Plasmopara viticola): 4 (4=no disease)
[2]; [4]
  disease control grading, Egt (Erysiphe graminis tritici): 1 (1=26-59% of disease on untreated plants)
Septoria nodorum; [3]
  disease control grading, Sn (Septoria nodorum): 0 (0=60-100% of disease on untreated plants)

## CO/C=C(/C(=O)OC)c1ccccc1Oc1cc(O/N=C(\C)c2ccc[nH]2)ncn1 [407 of Table I]
Pyricularia oryzae; 10 ppm foliar application only
  disease control grading, Po (Pyricularia oryzae): 1^a (1=26-59% of disease on untreated plants)
[1]; 10 ppm foliar application only
  disease control grading, Pil (Phytophthora infestans lycopersici): 0^a (0=60-100% of disease on untreated plants)
Thanatephorus cucumeris; 10 ppm foliar application only
  disease control grading, Tc (Thanatephorus cucumeris): 0^a (0=60-100% of disease on untreated plants)
Puccinia recondita; 10 ppm foliar application only
  disease control grading, Pr (Puccinia recondita): 0^a (0=60-100% of disease on untreated plants)
Venturia inaequalis; 10 ppm foliar application only
  disease control grading, Vi (Venturia inaegualis): 3^a (3=trace-5% of disease on untreated plants)
Plasmopara viticola; 10 ppm foliar application only
  disease control grading, Pv (Plasmopara viticola): 4^a (4=no disease)
[2]; 10 ppm foliar application only
  disease control grading, Egt (Erysiphe graminis tritici): 1^a (1=26-59% of disease on untreated plants)
Septoria nodorum; 10 ppm foliar application only
  disease control grading, Sn (Septoria nodorum): 0^a (0=60-100% of disease on untreated plants)
